ChEMBL document CHEMBL1125090, “Expedient synthesis and biochemical properties of an [125I]-labeled analogue of glyburide, a radioligand for ATP-inhibited potassium channels” (J Med Chem, 1990)
pKi: −log10 of the molar value.

Assay: Inhibition of [125I]-I binding to ATP-inhibited Potassium channel receptor of Rat brain homogenate

Compound | pKi
COc1ccc(I)cc1C(=O)NCCc1ccc(S(=O)(=O)NC(=O)NC2CCCCC2)cc1 | 8.59
Cc1cnc(C(=O)NCCc2ccc(S(=O)(=O)NC(=O)NC3CCCCC3)cc2)cn1 [GLIPIZIDE] | 8.09
COc1ccc(Cl)cc1C(=O)NCCc1ccc(S(=O)(=O)NC(=O)NC2CCCCC2)cc1 [GLYBURIDE] | 9.22
